These results are taken from patent publication US20130164325A1, “CERAMIDE-LIKE GLYCOLIPID-ASSOCIATED BACTERIAL VACCINES AND USES THEREOF” (Albert Einstein College of Medicine of Yeshiva University, priority 2010, published 2013).

The test system of this experiment is mouse splenocytes. Kind of experiment: Activation of mouse splenocytes with glycolipid-treated BMDCs, IFNγ production. The following applies: free glycolipid, compared to vehicle control (FIG. 5B). In kind it is cell-based.

In the case of `CCCCCCCCCCCCCCCCCCCCCCCCCC(=O)N[C@@H](CO[C@H]1O[C@H](CO)[C@H](O)[C@H](O)[C@H]1O)[C@H](O)[C@H](O)CCCCCCCCCCCCCC` [KRN7000, (2S,3S,4R)-1-O-(α-D-galactopyranosyl)-N-hexacosanoyl-2-amino-1,3,4-octadecanetriol], the IFNγ production result is listed as “induced IFNγ production”.
